# Laboratory results: publication PMC3025922 (BMC Biology, 2010)
# Where two headings read alike, the source gives them in different places.
# Test system: nuclear p27 in LNCaP-S14 cells
# Type: cell-based, human
# [1] = primary screening, nuclear p27 in LNCaP-S14 cells
# [2] = primary screening, S = strong, M = medium, W = weak by Z score
smiles,measurement,setting,value
COc1cc(OC)c(CN2CCC(NC(=O)c3ccc(-n4nc(C(C)(C)C)cc4C(C)(C)C)cc3)C2)c(OC)c1 (stereo not shown) [567D12],Z score (aver),[1],8.89
same,Clasf,[2],S (strong (Z score > 5))
O=C(NC1=C(Cl)C(=O)c2ccccc2C1=O)OC1CCCCCCC1 [567K05],Z score (aver),[1],2.74
same,Clasf,[2],W (weak (Z score 2-3)
O=C(OCn1ncc(Cl)c(Cl)c1=O)c1cccc(C(F)(F)F)c1 [567M11],Z score (aver),[1],4.23
same,Clasf,[2],M (medium (Z score 3-5))
O=C(OCn1ncc(Cl)c(Cl)c1=O)c1ccc(C(F)(F)F)cc1 [567M13],Clasf,[2],S (strong (Z score > 5))
O=C(NCCCn1ccnc1)OCc1ccc(C#Cc2ccccc2)s1 [567M14],Z score (aver),[1],2.83
same,Clasf,[2],W (weak (Z score 2-3)
COc1ccc2[nH]cc(CCNC(=O)OCC3CC4CCC3C4)c2c1 (stereo not shown) [567M20],Z score (aver),[1],4.13
same,Clasf,[2],M (medium (Z score 3-5))
O=C1c2ccccc2C(=O)N1Oc1ccc([N+](=O)[O-])c([N+](=O)[O-])c1 [669F07],Z score (aver),[1],3.84
same,Clasf,[2],M (medium (Z score 3-5))
Cc1ccc(C(=O)C2C(c3ccccc3I)C(C#N)(C#N)C3c4ccccc4C=CN23)cc1 (stereo not shown) [669K08],Z score (aver),[1],2.72
same,Clasf,[2],W (weak (Z score 2-3)
CC(=O)C1C(c2cccc(I)c2)C(C#N)(C#N)C2C=Cc3ccccc3N12 (stereo not shown) [669K10],Z score (aver),[1],3.55
same,Clasf,[2],M (medium (Z score 3-5))
N#CC1(C#N)C(c2cccc(I)c2)C(C(N)=O)N2C=Cc3ccccc3C21 (stereo not shown) [669M10],Z score (aver),[1],6.90
same,Clasf,[2],S (strong (Z score > 5))
N#CC1(C#N)C(c2ccccc2I)C(C(=O)C23CC4CC(CC(C4)C2)C3)N2c3ccccc3C=CC21 (stereo not shown) [669O10],Z score (aver),[1],6.23
same,Clasf,[2],S (strong (Z score > 5))
Cc1ccc(C)n1-c1ccccc1CNS(=O)(=O)c1ccc(Cl)cc1 [669P04],Z score (aver),[1],5.53
same,Clasf,[2],S (strong (Z score > 5))
COc1ccc(C2=NN3C(C2)c2cc(Cl)ccc2OC32CCCC2)cc1 (stereo not shown) [1157E14],Z score (aver),[1],4.67
same,Clasf,[2],M (medium (Z score 3-5))
N#Cc1cc2c(nc1SCC(=O)Nc1ccccc1F)CCCCC2 [1158J04],Z score (aver),[1],2.92
same,Clasf,[2],W (weak (Z score 2-3)
COc1ccccc1N1CCN(C(=O)CSc2nc3ccccc3c(=O)n2CCC(=O)NC2CCCCC2)CC1 [1158L12],Z score (aver),[1],2.46
same,Clasf,[2],W (weak (Z score 2-3)
CCOC(=O)C1=C(C)N=c2sc(=Cc3ccc(N(CC)CC)o3)c(=O)n2C1c1ccccc1OC (stereo not shown) [1158M07],Z score (aver),[1],11.51
same,Clasf,[2],S (strong (Z score > 5))
COc1ccccc1C1Oc2ccc(Cl)cc2C2CC(c3ccc(Cl)cc3)=NN21 (stereo not shown) [1158M11],Z score (aver),[1],4.34
same,Clasf,[2],M (medium (Z score 3-5))
C=CCN1C(=O)CC(C(=O)Nc2ccc(OC)cc2)SC1=Nc1ccc(Cl)cc1 (stereo not shown) [1158M12],Z score (aver),[1],2.69
same,Clasf,[2],W (weak (Z score 2-3)
CCOC(=O)C1=C(C)N=c2sc(=Cc3ccc(N4CCOCC4)o3)c(=O)n2C1c1ccc2c(c1)OCO2 (stereo not shown) [1158O07],Z score (aver),[1],8.87
same,Clasf,[2],S (strong (Z score > 5))
CC(=O)C1=C(C)NC(SCC(=O)c2ccc(Cl)cc2Cl)=C(C#N)C1c1sccc1C (stereo not shown) [1159B21],Z score (aver),[1],2.34
same,Clasf,[2],W (weak (Z score 2-3)
O=[N+]([O-])C(=C(Cl)Sc1ccccc1)C(Cl)=C(Cl)Cl [1159C10],Z score (aver),[1],2.72
same,Clasf,[2],W (weak (Z score 2-3)
COc1ccc2c(c1)OC1(C=C2)N(C)c2ccccc2C1(C)C (stereo not shown) [1159E12],Z score (aver),[1],12.29
same,Clasf,[2],S (strong (Z score > 5))
COC(=O)C1=C(N)n2c(sc(=Cc3ccc(Cl)cc3)c2=O)=C(C(=O)OC)C1c1ccc(Cl)cc1 (stereo not shown) [1159F17],Z score (aver),[1],2.15
same,Clasf,[2],W (weak (Z score 2-3)
N#Cc1c(N)nc(SCC(=O)NCc2ccccc2)c(C#N)c1-c1cccs1 [1159G21],Z score (aver),[1],3.48
same,Clasf,[2],M (medium (Z score 3-5))
Cc1ccc(-c2cn3c([n+]2-c2ccc(C)cc2)CCCCC3)cc1 [1159I14],Z score (aver),[1],2.49
same,Clasf,[2],W (weak (Z score 2-3)
COc1ccc(Br)cc1C1CC(=O)Nc2c1ccc1ccccc21 (stereo not shown) [1159L15],Z score (aver),[1],2.32
same,Clasf,[2],W (weak (Z score 2-3)
COc1ccc(-c2nc3c4ccccc4c4ccccc4c3[nH]2)c(OC)c1 [1160C13],Z score (aver),[1],2.90
same,Clasf,[2],W (weak (Z score 2-3)
O=C1C2C3c4ccccc4C(CO)(c4ccccc43)C2C(=O)N1c1ccc(Br)cc1 (stereo not shown) [1160E22],Z score (aver),[1],2.44
same,Clasf,[2],W (weak (Z score 2-3)
COc1cc(C(=O)N2c3ccc(C)cc3-c3c(ssc3=S)C2(C)C)cc(OC)c1OC [1160F11],Z score (aver),[1],3.09
same,Clasf,[2],M (medium (Z score 3-5))
CCNC(=O)C=C1NC(C)(C)Cc2c1ccc1ccccc21 [1160G14],Z score (aver),[1],2.31
same,Clasf,[2],W (weak (Z score 2-3)
Sc1nnc2c3ccccc3n(CCc3ccccc3)c2n1 [1160H09],Z score (aver),[1],2.51
same,Clasf,[2],W (weak (Z score 2-3)
CN(C)c1ccc(C=CC=CC23NC(=O)CN2c2ccccc2C3(C)C)cc1 (stereo not shown) [1160J08],Z score (aver),[1],4.94
same,Clasf,[2],M (medium (Z score 3-5))
N#CC1=C(N)C(C#N)(C#N)C(c2ccc(Br)cc2)C2CN(Cc3ccccc3)CC=C12 (stereo not shown) [1160K18],Z score (aver),[1],2.90
same,Clasf,[2],W (weak (Z score 2-3)
COc1ccccc1C(=O)N1c2ccccc2Sc2ccccc21 [1160M09],Z score (aver),[1],2.71
same,Clasf,[2],W (weak (Z score 2-3)
Cc1ccc(C)c2c1-c1ccccc1S(=O)(=O)N2S(=O)(=O)c1ccccc1 [1160M11],Z score (aver),[1],2.11
same,Clasf,[2],W (weak (Z score 2-3)
Cc1nc(NCCc2c[nH]c3ccccc23)cc(-c2ccc(F)cc2)n1 [1306E02],Z score (aver),[1],3.02
same,Clasf,[2],M (medium (Z score 3-5))
CCN(CC)c1cc(-c2ccc(F)cc2)nc(-c2ccncc2)n1 [1306I06],Z score (aver),[1],3.11
same,Clasf,[2],M (medium (Z score 3-5))
Fc1ccc(-c2cc(NCc3ccc(Cl)cc3)nc(-c3ccncc3)n2)cc1 [1306I08],Z score (aver),[1],3.44
same,Clasf,[2],M (medium (Z score 3-5))
COC(=O)c1c(-c2c(Cl)cccc2Cl)noc1C=CN(C)C [1306I21],Z score (aver),[1],4.49
same,Clasf,[2],M (medium (Z score 3-5))
Fc1ccc(-c2cc(NC3CC3)nc(-c3ccncc3)n2)cc1 [1306K08],Z score (aver),[1],3.56
same,Clasf,[2],M (medium (Z score 3-5))
CCCN1CCC(N(C(=O)c2cccc(C(F)(F)F)c2)c2ccc3[nH]c(C(C)(C)C)cc3c2)CC1 [1306L20],Z score (aver),[1],6.78
same,Clasf,[2],S (strong (Z score > 5))
CCC1(O)C(=O)OCc2c1cc1n(c2=O)Cc2cc3c(O)cccc3nc2-1 (stereo not shown) [1361B06],Z score (aver),[1],7.99
same,Clasf,[2],S (strong (Z score > 5))
C=CCNC1=C2CC(C)CC(OC)C(O)C(C)C=C(C)C(OC(N)=O)C(OC)C=CC=C(C)C(=O)NC(=CC1=O)C2=O (stereo not shown) [1361H16],Z score (aver),[1],3.92
same,Clasf,[2],M (medium (Z score 3-5))
COC1=CC(C)=CC(C)C(O)C(C)CC(C)=CC=CC(OC)C(C(C)C(O)C(C)C2CC(O)C(C)C(C(C)C)O2)OC1=O (stereo not shown) [1361J12],Z score (aver),[1],4.65
same,Clasf,[2],M (medium (Z score 3-5))
CC=C(C)C(=O)OC1C(C)=C2C(C1OC(=O)CCCCCCC)C(C)(OC(C)=O)CC(OC(=O)CCC)C1(O)C2OC(=O)C1(C)O (stereo not shown) [1361L03],Z score (aver),[1],8.27
same,Clasf,[2],S (strong (Z score > 5))
CNc1ccc2oc(CC3OC4(CCC3C)OC(C(C)C(=O)c3ccc[nH]3)C(C)CC4C)nc2c1C(=O)O (stereo not shown) [1361O18],Z score (aver),[1],8.06
same,Clasf,[2],S (strong (Z score > 5))
N#CC(C#N)=NNc1ccc(OC(F)(F)F)cc1 [1362E11],Clasf,,S (key: S: strong (Z score > 5); M: medium (Z score 3-5); W: weak (Z score 2-3)
same,Z score (aver),,6.18
CC1OC(=O)C(C(C)C)NC(=O)C(C(C)C)OC(=O)C(C(C)C)NC(=O)C(C)OC(=O)C(C(C)C)NC(=O)C(C(C)C)OC(=O)C(C(C)C)NC(=O)C(C)OC(=O)C(C(C)C)NC(=O)C(C(C)C)OC(=O)C(C(C)C)NC1=O (stereo not shown) [1362N07],Z score (aver),[1],7.42
same,Clasf,[2],S (strong (Z score > 5))
COCC1OC(=O)c2coc3c2C1(C)C1=C(C3=O)C2CCC(=O)C2(C)CC1OC(C)=O (stereo not shown) [1362N13],Z score (aver),[1],6.65
same,Clasf,[2],S (strong (Z score > 5))
CCOC(=O)c1cc(C#N)c(Sc2ccc(C)cc2)nc1C(F)(F)F [1520B07],Z score (aver),[1],5.43
same,Clasf,[2],S (strong (Z score > 5))
CC1=NC(=Cc2sccc2C)C(=O)O1 [1520B10],Z score (aver),[1],2.27
same,Clasf,[2],W (weak (Z score 2-3)
COc1ccc(OCC(=N)NC(=S)Nc2ccc(Cl)cc2)cc1 [1520B19],Z score (aver),[1],2.51
same,Clasf,[2],W (weak (Z score 2-3)
O=C(CSC1=NNC(c2ccccn2)S1)c1cccc(F)c1 (stereo not shown) [1520D17],Z score (aver),[1],4.91
same,Clasf,[2],M (medium (Z score 3-5))
Cc1cc(Br)ccc1NC(=O)CCCc1c[nH]c2ccccc12 [1520E21],Z score (aver),[1],4.74
same,Clasf,[2],M (medium (Z score 3-5))
COc1ccc(SC(=O)c2cc(C)n(Cc3c(Cl)cccc3Cl)n2)cc1 [1520J06],Z score (aver),[1],3.39
same,Clasf,[2],M (medium (Z score 3-5))
CCCNC(=O)Nc1nc(Nc2ccc(Cl)cc2)n[nH]1 [1520J18],Z score (aver),[1],3.47
same,Clasf,[2],M (medium (Z score 3-5))
Cc1onc(-c2c(Cl)cccc2Cl)c1-c1csc(CCn2c(=O)oc3ccccc32)n1 [1520L12],Z score (aver),[1],2.13
same,Clasf,[2],W (weak (Z score 2-3)
O=c1c(C(F)(F)F)cccn1CCc1nc(-c2ccccc2)cs1 [1520N01],Z score (aver),[1],3.32
same,Clasf,[2],M (medium (Z score 3-5))
Cc1cc(C(=O)Sc2cccc(Br)c2)nn1C(C)(C)C [1520N02],Z score (aver),[1],5.16
same,Clasf,[2],S (strong (Z score > 5))
CC(C)c1ccc(NC(=O)N2CCCN(CCOc3ccccc3)CC2)cc1 [1520P16],Z score (aver),[1],2.72
same,Clasf,[2],W (weak (Z score 2-3)
C=C(CC)C(=O)c1ccc(OCC(=O)O)c(Cl)c1Cl [1568D20],Z score (aver),[1],3.20
same,Clasf,[2],M (medium (Z score 3-5))
